Common to all, as to experiment: relative viability (nuclei count vs DMSO), 5 days (fraction); higher = more cells survive
Compound in the assay “NVP-TAE684 + Trametinib”: COc1cc(N2CCC(N3CCN(C)CC3)CC2)ccc1Nc1ncc(Cl)c(Nc2ccccc2S(=O)(=O)C(C)C)n1 [NVP-TAE684] + CC(=O)Nc1cccc(-n2c(=O)n(C3CC3)c(=O)c3c(Nc4ccc(I)cc4F)n(C)c(=O)c(C)c32)c1 [Trametinib] (partner 0.02 µM)
The gist of the method: (§1)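 Each reported value is a median over duplicate plates. It expresses relative viability: treated-well nuclei count divided by vehicle-well nuclei count. Lung cancer cell lines in 1536-well plates were dosed by pin tool a day after seeding, alone with one drug or with a fixed anchor-drug dose plus five library-drug doses (not always all listed) in √10 steps, and nuclei were counted after 5 days.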

Compound in the assay “Vandetanib + Dasatinib”: COc1cc2/c(=N/c3ccc(Br)cc3F)nc[nH]c2cc1OCC1CCN(C)CC1 [Vandetanib] + Cc1nc(Nc2ncc(C(=O)Nc3c(C)cccc3Cl)s2)cc(N2CCN(CCO)CC2)n1 [Dasatinib] (partner 0.075 µM)
The gist of the method: as §1

Compound in the assay “NVP-TAE684 + Tozasertib”: COc1cc(N2CCC(N3CCN(C)CC3)CC2)ccc1Nc1ncc(Cl)c(Nc2ccccc2S(=O)(=O)C(C)C)n1 [NVP-TAE684] + Cc1cc(Nc2cc(N3CCN(C)CC3)nc(Sc3ccc(NC(=O)C4CC4)cc3)n2)n[nH]1 [Tozasertib] (partner 0.1 µM)
An outline of the steps:
as §1

Compound in the assay “NVP-TAE684 + Foretinib”: COc1cc(N2CCC(N3CCN(C)CC3)CC2)ccc1Nc1ncc(Cl)c(Nc2ccccc2S(=O)(=O)C(C)C)n1 [NVP-TAE684] + COc1cc2c(Oc3ccc(NC(=O)C4(C(=O)Nc5ccc(F)cc5)CC4)cc3F)ccnc2cc1OCCCN1CCOCC1 [Foretinib] (partner 0.25 µM)
The gist of the method:
as §1

Compound in the assay “CUDC-101 + Linsitinib”: C#Cc1cccc(Nc2ncnc3cc(OC)c(OCCCCCCC(=O)NO)cc23)c1 [CUDC-101] + C[C@]1(O)C[C@@H](c2nc(-c3ccc4ccc(-c5ccccc5)nc4c3)c3c(N)nccn32)C1 [Linsitinib] (partner 1 µM)
An outline of the steps: as §1

As to UMC-11, the relative viability with NVP-TAE684 + Trametinib (first compound 0.2 µM) was found to be 0.701; with NVP-TAE684 + Trametinib (first compound 0.6325 µM), 0.636; with NVP-TAE684 + Trametinib (first compound 2 µM) it was 0.434; in the assay with Vandetanib + Dasatinib (first compound 0.02 µM) it was 0.442; in the assay with Vandetanib + Dasatinib (first compound 0.06325 µM) it was 0.422; with Vandetanib + Dasatinib (first compound 0.2 µM), 0.43. Also, the relative viability with Vandetanib + Dasatinib (first compound 0.6325 µM) came to 0.497; in the assay with Vandetanib + Dasatinib (first compound 2 µM), 0.462; with NVP-TAE684 + Tozasertib (first compound 0.2 µM) it was 0.234; with NVP-TAE684 + Tozasertib (first compound 0.6325 µM), 0.199; in the assay with NVP-TAE684 + Tozasertib (first compound 2 µM), 0.197; with NVP-TAE684 + Foretinib (first compound 0.2 µM) it was 1.03. In addition, the relative viability in the assay with NVP-TAE684 + Foretinib (first compound 0.6325 µM) turned out to be 0.926; with NVP-TAE684 + Foretinib (first compound 2 µM), 0.334; with CUDC-101 + Linsitinib (first compound 0.01 µM), 1.07; in the assay with CUDC-101 + Linsitinib (first compound 0.03162 µM), 0.97; with CUDC-101 + Linsitinib (first compound 0.1 µM) it was 1.03; in the assay with CUDC-101 + Linsitinib (first compound 0.3162 µM), 0.864. Also, in the assay with CUDC-101 + Linsitinib (first compound 1 µM), the relative viability is 0.208.

For the origin of these results see the supplement of paper PMC10307832.
